# From patent publication US5364864A, “1,4-disubstituted piperidines, their preparation and their application in therapy” (priority 1991, dated 1994)
# Target: acetylcholinesterase (Homo sapiens, UniProt P22303)
# Assay: Inhibition of acetylcholinesterase activity (method of Ellman et al.)
# Type: biochemical
# acetylcholinesterase, sequence (P22303 32-614): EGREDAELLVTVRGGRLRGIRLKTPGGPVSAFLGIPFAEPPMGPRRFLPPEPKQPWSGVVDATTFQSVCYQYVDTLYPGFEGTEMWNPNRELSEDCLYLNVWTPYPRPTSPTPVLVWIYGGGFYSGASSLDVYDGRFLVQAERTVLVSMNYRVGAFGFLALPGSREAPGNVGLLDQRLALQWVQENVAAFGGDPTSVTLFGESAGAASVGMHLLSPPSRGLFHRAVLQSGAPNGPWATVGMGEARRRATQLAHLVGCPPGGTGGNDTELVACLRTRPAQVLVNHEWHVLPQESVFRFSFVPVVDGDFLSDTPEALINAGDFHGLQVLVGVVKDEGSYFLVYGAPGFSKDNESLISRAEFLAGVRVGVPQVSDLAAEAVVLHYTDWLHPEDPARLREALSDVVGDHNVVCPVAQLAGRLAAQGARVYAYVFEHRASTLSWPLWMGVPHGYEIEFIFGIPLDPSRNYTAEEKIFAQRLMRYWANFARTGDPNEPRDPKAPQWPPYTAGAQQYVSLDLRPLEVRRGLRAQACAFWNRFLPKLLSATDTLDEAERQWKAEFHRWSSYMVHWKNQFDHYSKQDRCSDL
smiles,measurement,value
"S=C(NCCC1CCN(Cc2ccccc2)CC1)Nc1ccccc1 [Compound 1, 1-Phenyl-3-[2-(1-benzyl-4-piperidyl)ethyl]thiourea]",IC50,0.32 µM
